Assay [1] addresses T1, Human Prostaglandin-H Synthase—1 (hPGH-1) (Homo sapiens, UniProt P23219).
T1 construct: expressed in transfected cells; host or cells: COS-7 cells (ATCC), transient transfection with Lipofectamine 2000
The assay is described as follows: Human prostaglandin-H synthase-1 (hPGH-1) inhibition assay in transfected COS-7 cells (PGE-2 readout). The class given is cell-based. Particulars: COS-7 cells transfected with hPGH-1, arachidonic acid 20 μM, PGE-2 measured. The procedure:
(§1) The cells were grown in 10% fetal bovine serum (FBS) in DMEM medium (Invitrogen Life Technologies) at 37° C. in an atmosphere with 5% CO2 and 90% moisture. 20 000 cells/well were plated in 96 well plate (Falcon). The cells in a negative control were cultured only in the medium (NC), while the secretion of TNF-α in a positive control was stimulated by the addition of 500 pg/mL lipopolysaccharide (LPS, E. coli serotype 0111:B4, SIGMA) (PC) and the effect of the tested substances on TNF-α secretion was tested after their addition to cell cultures stimulated with LPS (TS). […] Human Prostaglandin-H Synthase—1 (hPGH-1) and Human Prostaglandin-H Synthase—2 (hPGH-2) Inhibition Assay
(§2) Genes coding hPGH-1 and hPGH-2 were amplified with PCR using Platinum pfx DNA polymerase (Invitrogen Life Technologies) from human placenta cDNA library (Stratagene). Primer sequences used for hPGH-1 are: • 5′ […] 3′ (SEQ ID NO: 1) and • 5′ […] 3′ (SEQ ID NO: 2); for hPGH-2 • 5′ […] 3′ (SEQ ID NO: 3) and • 5′ […] 3′ (SEQ ID NO: 4). PCR products were cloned into HindIII and BamHI restriction sites of pcDNA3.1 (Hygro(+) plasmid (Invitrogen Life Technologies), sequences were confirmed by sequencing.
(§3) Transfection was performed on COS-7 cells (ATCC), cells were grown in 10% foetal bovine serum (FBS) in DMEM medium (Invitrogen Life Tecnologies), 37° C. in an atmosphere with 5% CO2 and 90% moisture, to full confluency in 24 well plate (Falcon). 1 μg plasmid DNA (pcDNA Hygro 3.1 (+) containing PGH-1 or PGH-2 gene, or pcDNA Hygro 3.1 (+) for negative control samples) was combined with 1,5 μl Lipofectamine 2000 (Invitrogen Life Technologies), following manufacturer's recommendations. […] After 30 minutes supernatants were removed and PGE-2 was measured with PGE-2 assay kit (Cayman) following manufacturer's instructions.
(§4) % inhibition was calculated by the following equation: % inhibition=(1−sample PGE-2 concentration/positive control PGE-2 concentration)*100 In Vivo Model of LPS-Induced Exccessive Secretion of TNF-α in Mice

For assay [2], the system named is TNF-α. The assay is described as follows: Determination of TNF-α secretion in LPS-stimulated mononuclear cells of human peripheral blood in vitro (ELISA). As to conditions: human PBMC, LPS 1 μg/mL, 18 to 24 hours, TNF-α in supernatant by ELISA. The class given is cell-based. The procedure: Determination of TNF-α and IL-1β Secretion in Mononuclear Cells of Human Peripheral Blood In Vitro
Peripheral blood mononuclear cells (PMBC) were prepared from heparinized whole blood after separation of PMBC on Ficoll-Hypaque (Amersham-Pharmacia). For the determination of TNF-α level, 3.5-5×10^4 cells were cultured in a total volume of 200 μl within a period of 18 to 24 hours on microtiter flat bottom plates (96 wells, Falcon) in RPMI 1640 medium supplemented with 10% of heat-inactivated human AB serum (Croatian Centre For Transfusion Medicine, Zagreb), 100 units/mL of penicillin, […] and 20 mM HEPES (Invitrogen Life Technologies). The cells were incubated at 37° C. in an atmosphere with 5% CO2 and 90% moisture. The cells in a negative control were cultured only in the medium (NC), while the secretion of TNF-α in a positive control was stimulated by the addition of 1 μg/mL lipopolysaccharide (LPS, E. coli serotype 0111:B4, SIGMA) (PC) and the effect of the tested substances on TNF-α secretion was tested after their addition to cell cultures stimulated with LPS (TS). […] The test sensitivity was <3 pg/mL TNF-α. The determination of IL-1β level was performed as described for TNF-α determination, only that 1×10^5 cells/well and 0.1 ng/mL of LPS were used. IL-1β level was determined by ELISA (R&D Systems). […] IC-50 was calculated using Graph Pad Prism Software. Determination of TNF-α Secretion by RAW 264.7 Cells

Assay [3] deals with TNF-α. The assay is described as follows: In vivo model of LPS-induced excessive secretion of TNF-α in mice. Particulars: male BALB/c mice, substance p.o. 30 minutes prior to i.p. LPS 25 μg/animal, plasma TNF-α two hours later; dose not given. The procedure:
as §4
TNF-α secretion in mice was induced according to the previously described method (Badger A. M. Et al., J. of Pharmac. and Env. Therap. 279 1996 1453-1461). In the test, male BALB/c mice at an age of 8 to 12 weeks in groups of 6 to 10 animals were used. Animals were treated p.o. either only with the solvent (in a negative and a positive control) or with solutions of the substance 30 minutes prior to the i.p. treatment with LPS (E. coli serotype 0111:B4, Sigma) in a dose of 25 μg/animal. Two hours later the animals were euthanized by means of i.p. injection of Roumpun (Bayer) and Ketanest (Park-Davis). […] The TNF-α level in the plasma was determined by ELISA (Biosource, R&D Systems) according to the process prescribed by the manufacturer. The test sensitivity was <3 pg/mL TNF-α. The percentage inhibition of TNF-α production was calculated by the following equation: % inhibition=[1−(TS—NC)/(PC—NC)]*100

Assay [4] deals with T2, Human Prostaglandin-H Synthase—2 (hPGH-2) (Homo sapiens, UniProt P35354).
T2 construct: expressed in transfected cells; host or cells: COS-7 cells (ATCC), transient transfection with Lipofectamine 2000
T2 sequence (P35354 18-604): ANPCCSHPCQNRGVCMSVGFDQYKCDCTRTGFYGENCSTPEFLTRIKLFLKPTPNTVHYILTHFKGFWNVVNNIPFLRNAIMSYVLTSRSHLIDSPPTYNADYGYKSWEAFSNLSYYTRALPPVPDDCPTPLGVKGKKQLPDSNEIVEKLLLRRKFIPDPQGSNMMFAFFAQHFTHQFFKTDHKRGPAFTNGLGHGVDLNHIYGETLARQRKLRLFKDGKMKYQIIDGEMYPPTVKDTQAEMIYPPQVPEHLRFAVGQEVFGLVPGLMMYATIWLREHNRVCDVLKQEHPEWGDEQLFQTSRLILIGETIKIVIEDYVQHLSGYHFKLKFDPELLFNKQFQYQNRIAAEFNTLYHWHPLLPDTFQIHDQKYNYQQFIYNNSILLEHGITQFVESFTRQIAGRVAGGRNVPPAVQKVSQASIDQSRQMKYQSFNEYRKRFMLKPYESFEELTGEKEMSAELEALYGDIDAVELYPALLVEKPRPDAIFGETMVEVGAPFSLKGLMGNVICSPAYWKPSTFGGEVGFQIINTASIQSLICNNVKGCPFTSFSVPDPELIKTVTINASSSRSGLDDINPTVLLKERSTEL
The assay is described as follows: Human prostaglandin-H synthase-2 (hPGH-2) inhibition assay in transfected COS-7 cells (PGE-2 readout). In kind it is cell-based. As to conditions: COS-7 cells transfected with hPGH-2, arachidonic acid 20 μM, PGE-2 measured. The procedure: as §1, §2, §3, §4

SMILES strings stand for the structures.

This note sets out measurements from patent publication US7109176B2, “Nonsteroidal anti-inflammatory substances, compositions and methods for their use” (Pliva-Istrazivacki Institut D.o.o., priority 2002, dated 2006).

T1 sequence (P23219 24-599): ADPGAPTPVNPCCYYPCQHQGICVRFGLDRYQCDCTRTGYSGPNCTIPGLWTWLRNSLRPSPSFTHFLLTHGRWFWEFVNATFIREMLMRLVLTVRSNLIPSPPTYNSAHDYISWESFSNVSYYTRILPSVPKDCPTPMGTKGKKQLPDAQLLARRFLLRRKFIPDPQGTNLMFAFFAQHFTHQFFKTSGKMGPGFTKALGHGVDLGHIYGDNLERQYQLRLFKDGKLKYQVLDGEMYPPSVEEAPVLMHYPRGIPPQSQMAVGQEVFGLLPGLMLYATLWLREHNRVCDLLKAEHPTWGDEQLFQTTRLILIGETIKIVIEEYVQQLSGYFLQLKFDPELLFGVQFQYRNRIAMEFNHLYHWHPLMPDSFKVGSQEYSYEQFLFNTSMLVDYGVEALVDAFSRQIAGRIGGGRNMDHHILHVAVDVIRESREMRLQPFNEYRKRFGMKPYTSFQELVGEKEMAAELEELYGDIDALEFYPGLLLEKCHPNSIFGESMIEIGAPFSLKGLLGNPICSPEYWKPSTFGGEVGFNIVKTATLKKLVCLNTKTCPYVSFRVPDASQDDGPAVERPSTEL

`CC[C@H]1OC(=O)[C@H](C)[C@@H](O[C@H]2C[C@@](C)(OC)[C@@H](O)[C@H](C)O2)[C@H](C)[C@@H](O[C@@H]2O[C@H](C)C[C@H](N(C)C)[C@H]2O)[C@](C)(O)C[C@@H](C)CN(CCCNC(=O)Cc2c(C)n(C(=O)c3ccc(Cl)cc3)c3ccc(OC)cc23)[C@H](C)[C@@H](O)[C@]1(C)O` [Ex. 4]: the IC50 in assay [1] was greater than 30 µM; with TNF-α [2] it was 1 µM; in assay [4], 1 µM. Further, the “LPS induced excessive secretion of TNF-α % of inhibition” value in the assay with TNF-α [3] is 70%.
Consider `CC[C@H]1OC(=O)[C@H](C)[C@@H](O[C@H]2C[C@@](C)(OC)[C@@H](O)[C@H](C)O2)[C@H](C)[C@@H](O[C@@H]2O[C@H](C)C[C@H](N(C)C)[C@H]2O)[C@](C)(O)C[C@@H](C)CN(CCCNC(=O)[C@@H](C)c2ccc(CC(C)C)cc2)[C@H](C)[C@@H](O)[C@]1(C)O` [Ex. 5], for which the IC50 amounted to 10 µM in assay [1], 1 µM in the assay with TNF-α [2] and 10 µM in assay [4]. The “LPS induced excessive secretion of TNF-α % of inhibition” value in the assay with TNF-α [3] came out at 66%.
With `CC[C@H]1OC(=O)[C@H](C)[C@@H](O)[C@H](C)[C@@H](O[C@@H]2O[C@H](C)C[C@H](N(C)C)[C@H]2O)[C@](C)(O)C[C@@H](C)CN(CCCNC(=O)Cc2c(C)n(C(=O)c3ccc(Cl)cc3)c3ccc(OC)cc23)[C@H](C)[C@@H](O)[C@]1(C)O` [Ex. 10], the values for the IC50 (in assay [1]; with TNF-α [2]; in assay [4]) were greater than 30 µM, 10 µM and greater than 30 µM, respectively. For the same molecule, the “LPS induced excessive secretion of TNF-α % of inhibition” value with TNF-α [3] was 47%.
On to `CC(C)Cc1ccc([C@@H](C)C(=O)O)cc1` [S-(+)-Ibuprofen, S-(+)-ibuprofen, reference compound], for which, in the assay with TNF-α [2], the IC50 is greater than 30 µM.
